In ChEMBL document CHEMBL1201862, “PubChem BioAssay data set” (2004):
The source made the active and inactive calls.

Columns and labels:
[1] = biological target: Hepatocyte nuclear factor 4-alpha (Homo sapiens, UniProt P41235); type: functional, cell-based;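 further: biochemical luminescence-based dose-response counterscreen measuring inhibition of HNF4 dimerization, run alongside a screen for blockers of ABHD5–perilipin-5 interaction; split luciferase complementation of HNF4 fusion proteins in cell lysate measuring dimerization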
[2] = biological target: T1, Ubiquitin-conjugating enzyme E2 N (Homo sapiens, UniProt P61088); type: functional
T1 sequence (P61088 whole entry): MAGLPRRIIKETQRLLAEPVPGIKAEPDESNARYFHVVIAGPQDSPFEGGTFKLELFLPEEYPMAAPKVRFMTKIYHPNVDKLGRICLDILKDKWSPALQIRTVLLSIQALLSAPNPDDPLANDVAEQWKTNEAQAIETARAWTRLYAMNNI

Genome polyprotein = Genome polyprotein (dengue virus type 2, UniProt P29990); test: flavivirus cap methylation enzyme inhibition – biochemical, confirmation dose response, primary screen (AID 588689); type: functional
Sequence of Genome polyprotein (P29990 2492-3391 limits assumed): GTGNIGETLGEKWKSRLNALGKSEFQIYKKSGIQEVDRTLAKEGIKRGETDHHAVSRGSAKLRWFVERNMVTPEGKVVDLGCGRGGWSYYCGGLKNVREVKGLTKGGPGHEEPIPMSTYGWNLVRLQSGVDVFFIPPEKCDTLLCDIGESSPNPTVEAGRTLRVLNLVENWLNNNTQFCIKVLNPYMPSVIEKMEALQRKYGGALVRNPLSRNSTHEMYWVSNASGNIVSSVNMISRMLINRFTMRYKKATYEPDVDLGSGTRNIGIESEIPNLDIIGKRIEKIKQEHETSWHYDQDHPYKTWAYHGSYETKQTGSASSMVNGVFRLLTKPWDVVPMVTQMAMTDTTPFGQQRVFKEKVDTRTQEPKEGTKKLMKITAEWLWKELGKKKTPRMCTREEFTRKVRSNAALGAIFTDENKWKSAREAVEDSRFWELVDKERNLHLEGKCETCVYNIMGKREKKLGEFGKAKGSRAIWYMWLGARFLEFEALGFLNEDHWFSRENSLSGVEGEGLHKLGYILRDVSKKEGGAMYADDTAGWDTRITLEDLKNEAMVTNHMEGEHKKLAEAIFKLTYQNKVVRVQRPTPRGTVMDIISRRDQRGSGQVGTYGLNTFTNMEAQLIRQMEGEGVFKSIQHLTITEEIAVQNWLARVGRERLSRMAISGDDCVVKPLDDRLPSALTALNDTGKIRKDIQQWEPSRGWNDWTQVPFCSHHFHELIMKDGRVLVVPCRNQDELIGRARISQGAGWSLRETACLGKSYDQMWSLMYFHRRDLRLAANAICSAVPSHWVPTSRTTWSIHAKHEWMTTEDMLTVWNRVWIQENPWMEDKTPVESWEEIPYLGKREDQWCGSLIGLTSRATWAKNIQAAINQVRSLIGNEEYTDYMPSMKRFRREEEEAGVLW

[3] = non-specific 3'UTR reporter inhibition in Clone20-Shn3RL – cell-based, Renilla luciferase, cherry-picked, counter-screen for Shn3 inhibitor project, dose response (AID 624133); type: functional
Protein RecA = biological target: T2, Protein RecA (Mycobacterium tuberculosis, UniProt P9WHJ3); test: Fluorescence Cell-Free Homogeneous Dose Retest to Identify Inhibitors of RecA-Intein Splicing Activity. [Related pubchem assays (depositor defined):AID2097, AID2223, AID489010, AID492950]; type: functional
T2 sequence (P9WHJ3 whole entry): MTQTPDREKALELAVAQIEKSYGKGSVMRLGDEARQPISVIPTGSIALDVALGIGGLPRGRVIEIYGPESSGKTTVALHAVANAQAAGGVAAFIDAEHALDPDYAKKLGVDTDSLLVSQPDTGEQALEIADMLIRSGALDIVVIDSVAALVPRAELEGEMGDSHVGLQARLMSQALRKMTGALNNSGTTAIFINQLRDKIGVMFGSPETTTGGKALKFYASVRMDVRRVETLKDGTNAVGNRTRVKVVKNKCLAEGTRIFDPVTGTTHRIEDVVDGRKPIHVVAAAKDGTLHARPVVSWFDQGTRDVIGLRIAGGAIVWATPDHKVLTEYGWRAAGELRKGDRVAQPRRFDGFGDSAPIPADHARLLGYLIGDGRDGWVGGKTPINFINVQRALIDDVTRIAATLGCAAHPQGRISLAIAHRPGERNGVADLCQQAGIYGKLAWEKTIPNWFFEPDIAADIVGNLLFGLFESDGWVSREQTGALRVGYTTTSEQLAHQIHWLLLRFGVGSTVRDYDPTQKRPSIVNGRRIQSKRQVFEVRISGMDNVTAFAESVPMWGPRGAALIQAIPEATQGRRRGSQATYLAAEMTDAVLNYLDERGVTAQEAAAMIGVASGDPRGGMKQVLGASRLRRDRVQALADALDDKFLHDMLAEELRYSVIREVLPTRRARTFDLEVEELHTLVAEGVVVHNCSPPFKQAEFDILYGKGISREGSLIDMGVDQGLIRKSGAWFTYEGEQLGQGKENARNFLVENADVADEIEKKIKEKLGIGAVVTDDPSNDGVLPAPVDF

[4] = reduction of Shn3 3'UTR-driven luciferase in osteoblasts – cell-based, Clone20 osteoblasts, firefly luciferase, cherry-picked, dose response (AID 624132); type: functional;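 further: firefly luciferase luminescence from reporter carrying the Shn3 3'UTR in osteoblasts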
[5] = biological target: T3, Replicative DNA helicase DnaB (Mycobacterium tuberculosis, UniProt P9WMR3); test: DnaB intein splicing inhibitors, dose response, biochemical, cell-free fluorescence (AID 449749); type: functional
T3 sequence (P9WMR3 whole entry): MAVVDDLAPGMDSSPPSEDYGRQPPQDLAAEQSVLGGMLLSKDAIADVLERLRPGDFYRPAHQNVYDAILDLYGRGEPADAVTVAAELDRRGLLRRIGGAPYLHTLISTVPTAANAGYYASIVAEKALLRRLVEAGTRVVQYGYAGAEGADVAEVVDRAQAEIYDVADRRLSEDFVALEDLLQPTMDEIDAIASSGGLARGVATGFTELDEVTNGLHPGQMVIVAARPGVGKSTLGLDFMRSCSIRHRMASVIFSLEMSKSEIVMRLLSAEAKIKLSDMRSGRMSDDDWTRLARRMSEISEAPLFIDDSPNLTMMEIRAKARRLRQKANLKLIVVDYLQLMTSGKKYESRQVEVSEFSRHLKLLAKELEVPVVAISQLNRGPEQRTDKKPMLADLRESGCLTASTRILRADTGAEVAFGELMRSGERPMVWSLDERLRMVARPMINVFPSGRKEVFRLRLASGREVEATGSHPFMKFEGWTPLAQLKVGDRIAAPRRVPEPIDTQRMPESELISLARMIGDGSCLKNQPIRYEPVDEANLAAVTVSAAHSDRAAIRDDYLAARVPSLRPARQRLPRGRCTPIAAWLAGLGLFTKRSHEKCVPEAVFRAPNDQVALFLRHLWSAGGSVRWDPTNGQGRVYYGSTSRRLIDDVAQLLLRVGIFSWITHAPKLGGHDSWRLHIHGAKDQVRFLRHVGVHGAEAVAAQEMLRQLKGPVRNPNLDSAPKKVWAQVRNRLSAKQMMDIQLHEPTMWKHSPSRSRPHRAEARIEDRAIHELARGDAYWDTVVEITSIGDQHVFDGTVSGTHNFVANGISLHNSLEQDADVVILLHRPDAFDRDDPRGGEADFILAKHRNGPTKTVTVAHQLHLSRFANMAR

[6] = biological target: T1, Ubiquitin-conjugating enzyme E2 N; type: functional; remark: listed apart in the source
[7] = Intein inhibitors as potential Tuberculosis drugs, a cytotoxicity screen. [Related pubchem assays (depositor defined):AID2221, AID2223, AID434968, AID435010, AID449749, AID449750, AID489010]; type: functional
Bcl-2-related protein A1 = biological target: T4, Bcl-2-related protein A1 (Mus musculus, UniProt Q07440); type: functional;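 further: confirmatory dose–response counterscreen on Bfl-1, used to check hits from a UBC13 polyubiquitin inhibitor campaign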
T4 sequence (Q07440 whole entry): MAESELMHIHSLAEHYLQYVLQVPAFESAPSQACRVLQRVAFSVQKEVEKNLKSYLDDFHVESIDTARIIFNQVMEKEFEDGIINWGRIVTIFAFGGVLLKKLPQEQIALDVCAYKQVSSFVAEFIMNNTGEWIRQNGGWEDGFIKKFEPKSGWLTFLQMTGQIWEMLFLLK

Vero = test: viability of Vero cells under compound – cytotoxicity control for flavivirus capping enzyme inhibitors (AID 588742); type: functional; conditions: Chlorocebus sabaeus
Coagulation factor XII = biological target: T5, Coagulation factor XII (Homo sapiens, UniProt P00748); test: Factor XIIa Dose Response Confirmation from Single Well HTS. [Related pubchem assays (depositor defined):AID701]; type: functional
T5 sequence (P00748 whole entry): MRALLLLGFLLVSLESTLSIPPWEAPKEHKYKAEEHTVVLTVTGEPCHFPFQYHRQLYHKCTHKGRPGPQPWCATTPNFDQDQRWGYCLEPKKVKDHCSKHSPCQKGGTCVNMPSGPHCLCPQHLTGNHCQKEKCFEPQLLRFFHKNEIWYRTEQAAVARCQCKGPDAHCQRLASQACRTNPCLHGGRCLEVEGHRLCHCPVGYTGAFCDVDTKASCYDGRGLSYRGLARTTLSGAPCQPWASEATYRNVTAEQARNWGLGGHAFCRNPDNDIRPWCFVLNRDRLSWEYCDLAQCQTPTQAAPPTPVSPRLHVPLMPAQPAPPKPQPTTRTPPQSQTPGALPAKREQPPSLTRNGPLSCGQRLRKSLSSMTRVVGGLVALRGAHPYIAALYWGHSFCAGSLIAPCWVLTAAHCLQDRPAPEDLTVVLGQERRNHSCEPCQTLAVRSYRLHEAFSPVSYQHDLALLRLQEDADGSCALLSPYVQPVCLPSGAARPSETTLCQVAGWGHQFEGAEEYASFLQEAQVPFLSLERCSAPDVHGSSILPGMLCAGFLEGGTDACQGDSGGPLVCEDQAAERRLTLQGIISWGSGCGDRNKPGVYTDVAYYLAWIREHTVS

[8] = biological target: Voltage-dependent T-type calcium channel subunit alpha-1H (Homo sapiens, UniProt O95180); test: human CACNA1H calcium influx blockade – cell-based, synthetic library set 2, HEK293 HH8, Fluo-4, SAR follow-up (AID 493023); type: functional
[9] = biological target: T6, Heat shock factor protein 1 (Mus musculus, UniProt P38532); test: enhancement of HSF1-driven luciferase signal – cell-based, NIH3T3, luminescence, dose retest, confirmation (AID 435004); type: functional;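 further: stress induced by proteasome inhibitor MG132 added 30 min after compound; luciferase reporter driven by HSF1 response element in NIH3T3 cells; actives raise luminescence as potentiators of the MG132 stress response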
T6 sequence (P38532 whole entry): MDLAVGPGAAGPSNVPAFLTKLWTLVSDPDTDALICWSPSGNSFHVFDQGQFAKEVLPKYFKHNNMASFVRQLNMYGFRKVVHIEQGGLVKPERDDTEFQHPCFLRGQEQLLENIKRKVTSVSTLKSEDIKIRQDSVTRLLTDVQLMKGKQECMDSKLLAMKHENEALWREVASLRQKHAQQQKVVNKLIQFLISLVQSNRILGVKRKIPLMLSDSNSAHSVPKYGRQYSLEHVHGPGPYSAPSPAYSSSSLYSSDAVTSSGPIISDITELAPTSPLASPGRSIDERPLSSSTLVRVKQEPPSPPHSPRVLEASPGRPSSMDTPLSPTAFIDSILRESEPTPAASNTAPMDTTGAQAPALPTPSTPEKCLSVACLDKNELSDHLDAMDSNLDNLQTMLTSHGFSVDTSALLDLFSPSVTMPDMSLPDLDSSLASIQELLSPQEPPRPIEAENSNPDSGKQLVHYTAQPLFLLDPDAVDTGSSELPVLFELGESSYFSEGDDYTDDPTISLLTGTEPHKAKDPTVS

Hexokinase HKDC1 = biological target: T7, Hexokinase HKDC1 (Homo sapiens, UniProt Q2TB90); test: activation of HKDC1 glucose phosphorylation – biochemical, W721R variant, dose response (AID 504730); type: functional
T7 sequence (Q2TB90 whole entry): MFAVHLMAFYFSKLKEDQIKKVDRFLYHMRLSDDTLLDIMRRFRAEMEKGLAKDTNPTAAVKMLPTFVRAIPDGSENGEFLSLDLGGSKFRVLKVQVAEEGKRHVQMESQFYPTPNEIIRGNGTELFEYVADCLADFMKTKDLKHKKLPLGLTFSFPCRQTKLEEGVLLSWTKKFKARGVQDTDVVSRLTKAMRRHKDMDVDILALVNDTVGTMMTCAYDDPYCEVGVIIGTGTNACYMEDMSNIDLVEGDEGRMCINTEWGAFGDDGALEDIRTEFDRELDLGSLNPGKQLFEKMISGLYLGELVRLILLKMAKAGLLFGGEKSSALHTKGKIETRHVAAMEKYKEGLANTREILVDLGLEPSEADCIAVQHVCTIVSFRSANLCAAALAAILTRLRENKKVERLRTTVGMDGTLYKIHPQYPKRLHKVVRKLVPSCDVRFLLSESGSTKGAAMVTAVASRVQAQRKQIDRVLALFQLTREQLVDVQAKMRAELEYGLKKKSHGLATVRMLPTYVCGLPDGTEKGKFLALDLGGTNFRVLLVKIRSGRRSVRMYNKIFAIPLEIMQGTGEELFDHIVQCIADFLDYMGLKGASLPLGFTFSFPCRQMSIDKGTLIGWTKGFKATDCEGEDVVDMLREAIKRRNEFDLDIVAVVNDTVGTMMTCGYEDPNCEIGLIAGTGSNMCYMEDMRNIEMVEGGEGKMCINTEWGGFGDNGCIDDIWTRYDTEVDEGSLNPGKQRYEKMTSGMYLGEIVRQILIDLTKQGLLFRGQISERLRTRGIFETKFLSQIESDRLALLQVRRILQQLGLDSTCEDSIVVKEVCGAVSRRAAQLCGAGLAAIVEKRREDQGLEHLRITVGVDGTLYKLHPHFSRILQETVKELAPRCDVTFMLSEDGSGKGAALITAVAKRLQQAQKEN

HEK293 [10] = test: cells; conditions: Homo sapiens
HEK293 [11] = test: cells; conditions: Homo sapiens; remark: listed apart in the source
[12] = biological target: Peroxisome proliferator-activated receptor gamma/Nuclear receptor coactivator 2 (Homo sapiens, UniProt P37231); type: functional;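 further: agonist potency for raising coactivator recruitment to the receptor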
Sequence of Peroxisome proliferator-activated receptor gamma/Nuclear receptor coactivator 2 (P37231 whole entry): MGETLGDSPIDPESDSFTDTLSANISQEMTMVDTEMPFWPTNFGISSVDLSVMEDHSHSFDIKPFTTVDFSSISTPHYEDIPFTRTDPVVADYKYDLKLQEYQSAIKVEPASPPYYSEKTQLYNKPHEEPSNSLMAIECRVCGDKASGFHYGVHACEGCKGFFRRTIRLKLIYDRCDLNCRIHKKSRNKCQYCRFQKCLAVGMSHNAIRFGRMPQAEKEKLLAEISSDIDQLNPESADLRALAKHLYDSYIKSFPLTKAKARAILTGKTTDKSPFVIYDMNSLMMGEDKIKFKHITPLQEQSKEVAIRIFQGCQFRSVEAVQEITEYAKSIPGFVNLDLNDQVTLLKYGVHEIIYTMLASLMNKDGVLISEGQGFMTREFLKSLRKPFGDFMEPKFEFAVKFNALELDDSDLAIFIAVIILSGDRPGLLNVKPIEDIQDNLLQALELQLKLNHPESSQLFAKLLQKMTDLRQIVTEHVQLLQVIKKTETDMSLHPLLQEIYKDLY
Sequence of Peroxisome proliferator-activated receptor gamma/Nuclear receptor coactivator 2 (Q15596 whole entry, further chain): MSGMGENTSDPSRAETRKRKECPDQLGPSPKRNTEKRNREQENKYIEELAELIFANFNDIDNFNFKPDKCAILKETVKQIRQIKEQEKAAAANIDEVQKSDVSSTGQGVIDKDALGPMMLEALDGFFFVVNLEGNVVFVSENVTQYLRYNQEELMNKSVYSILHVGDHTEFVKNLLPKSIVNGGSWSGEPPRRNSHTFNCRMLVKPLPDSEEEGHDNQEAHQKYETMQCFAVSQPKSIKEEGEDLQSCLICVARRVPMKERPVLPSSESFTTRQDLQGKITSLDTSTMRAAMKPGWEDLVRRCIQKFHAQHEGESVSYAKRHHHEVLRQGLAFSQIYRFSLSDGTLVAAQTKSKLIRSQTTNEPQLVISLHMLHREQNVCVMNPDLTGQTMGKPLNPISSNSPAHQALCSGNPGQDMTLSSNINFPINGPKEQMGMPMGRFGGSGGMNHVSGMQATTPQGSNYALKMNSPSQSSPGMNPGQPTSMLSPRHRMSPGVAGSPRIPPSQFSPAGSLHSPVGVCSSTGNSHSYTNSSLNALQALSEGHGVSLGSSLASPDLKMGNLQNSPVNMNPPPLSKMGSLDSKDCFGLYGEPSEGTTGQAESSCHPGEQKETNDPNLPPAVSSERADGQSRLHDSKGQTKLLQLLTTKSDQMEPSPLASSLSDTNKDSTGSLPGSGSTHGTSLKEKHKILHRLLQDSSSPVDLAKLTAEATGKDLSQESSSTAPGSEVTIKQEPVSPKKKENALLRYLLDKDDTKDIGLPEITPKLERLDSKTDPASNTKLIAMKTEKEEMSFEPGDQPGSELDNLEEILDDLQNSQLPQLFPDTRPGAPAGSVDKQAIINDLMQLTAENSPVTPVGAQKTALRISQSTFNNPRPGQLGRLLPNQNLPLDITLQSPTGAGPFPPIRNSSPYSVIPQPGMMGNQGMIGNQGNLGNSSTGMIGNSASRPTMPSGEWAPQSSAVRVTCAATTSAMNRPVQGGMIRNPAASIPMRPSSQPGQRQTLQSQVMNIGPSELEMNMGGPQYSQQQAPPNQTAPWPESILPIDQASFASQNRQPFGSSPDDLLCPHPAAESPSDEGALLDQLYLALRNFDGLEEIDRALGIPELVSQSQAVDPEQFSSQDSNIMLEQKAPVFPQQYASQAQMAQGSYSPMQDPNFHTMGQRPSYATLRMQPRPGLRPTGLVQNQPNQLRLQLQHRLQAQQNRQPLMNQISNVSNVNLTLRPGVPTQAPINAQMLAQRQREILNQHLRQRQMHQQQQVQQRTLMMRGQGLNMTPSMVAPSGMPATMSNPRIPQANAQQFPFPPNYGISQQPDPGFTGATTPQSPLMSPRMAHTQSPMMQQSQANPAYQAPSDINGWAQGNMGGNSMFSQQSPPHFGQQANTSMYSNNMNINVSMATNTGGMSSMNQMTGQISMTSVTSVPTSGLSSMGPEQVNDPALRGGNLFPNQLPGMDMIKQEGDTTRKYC

Hexokinase-1 = Hexokinase-1 (Homo sapiens, UniProt P19367); test: HK1 enzyme activation by HKDC1 hits – biochemical, selectivity assay for HKDC1 activator project, dose response (AID 504762); type: functional
[13] = biological target: Peroxisome proliferator-activated receptor gamma/Nuclear receptor coactivator 3 (Homo sapiens, UniProt P37231); type: functional;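 further: agonist potency for raising coactivator recruitment to the receptor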
Sequence of Peroxisome proliferator-activated receptor gamma/Nuclear receptor coactivator 3 (P37231 whole entry): as the sequence (P37231 whole entry) above
Sequence of Peroxisome proliferator-activated receptor gamma/Nuclear receptor coactivator 3 (Q9Y6Q9 whole entry, further chain): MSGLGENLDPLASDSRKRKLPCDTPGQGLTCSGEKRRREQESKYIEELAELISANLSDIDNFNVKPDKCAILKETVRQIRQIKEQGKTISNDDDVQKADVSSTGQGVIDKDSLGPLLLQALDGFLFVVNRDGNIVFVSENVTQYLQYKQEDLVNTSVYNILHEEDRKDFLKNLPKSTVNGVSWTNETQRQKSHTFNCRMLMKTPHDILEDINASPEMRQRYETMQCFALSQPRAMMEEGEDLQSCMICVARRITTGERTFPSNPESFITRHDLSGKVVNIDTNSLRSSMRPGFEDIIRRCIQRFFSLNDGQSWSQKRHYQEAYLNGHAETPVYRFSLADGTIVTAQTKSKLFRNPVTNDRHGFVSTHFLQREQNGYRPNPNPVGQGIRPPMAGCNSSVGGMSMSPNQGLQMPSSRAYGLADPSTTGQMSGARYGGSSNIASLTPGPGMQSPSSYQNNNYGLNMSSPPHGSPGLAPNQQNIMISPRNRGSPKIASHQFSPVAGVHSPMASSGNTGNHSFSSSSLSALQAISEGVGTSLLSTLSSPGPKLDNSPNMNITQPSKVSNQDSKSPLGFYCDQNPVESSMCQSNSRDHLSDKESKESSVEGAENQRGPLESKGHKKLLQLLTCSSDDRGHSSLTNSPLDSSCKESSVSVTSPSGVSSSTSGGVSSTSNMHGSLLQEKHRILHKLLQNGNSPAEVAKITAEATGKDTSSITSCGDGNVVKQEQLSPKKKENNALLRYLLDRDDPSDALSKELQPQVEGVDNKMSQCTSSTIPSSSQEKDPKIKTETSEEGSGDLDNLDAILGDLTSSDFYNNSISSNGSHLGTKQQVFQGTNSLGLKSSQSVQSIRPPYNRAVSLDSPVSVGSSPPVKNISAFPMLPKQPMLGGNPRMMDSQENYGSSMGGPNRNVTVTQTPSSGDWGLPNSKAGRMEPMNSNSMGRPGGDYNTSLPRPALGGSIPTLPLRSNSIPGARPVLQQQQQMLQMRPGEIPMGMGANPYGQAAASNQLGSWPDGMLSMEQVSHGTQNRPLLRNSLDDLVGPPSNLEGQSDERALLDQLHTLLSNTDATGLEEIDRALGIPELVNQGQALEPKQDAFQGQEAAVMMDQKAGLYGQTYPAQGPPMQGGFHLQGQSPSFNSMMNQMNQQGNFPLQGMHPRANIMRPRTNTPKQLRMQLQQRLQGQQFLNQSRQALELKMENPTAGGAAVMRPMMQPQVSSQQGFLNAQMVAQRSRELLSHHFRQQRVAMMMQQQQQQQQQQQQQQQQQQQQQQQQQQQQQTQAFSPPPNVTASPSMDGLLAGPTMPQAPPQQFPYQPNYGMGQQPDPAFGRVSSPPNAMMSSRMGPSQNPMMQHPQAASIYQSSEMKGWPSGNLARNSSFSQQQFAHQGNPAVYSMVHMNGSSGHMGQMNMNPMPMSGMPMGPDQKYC

[14] = biological target: Peroxisome proliferator-activated receptor gamma/Nuclear receptor coactivator 1 (Homo sapiens, UniProt P37231); type: functional;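 further: agonist potency as compounds enhance coactivator SRC-1 recruitment to PPARgamma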
[15] = Trypanosoma cruzi growth suppression in host cells – NIH3T3 host cells, beta-gal luminescence, confirmation (AID 2044); type: functional, cell-based;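 further: intracellular parasites grown in NIH/3T3 mouse fibroblasts as host cells; luminescent beta-galactosidase reporter signal from transgenic T. cruzi replicating inside host cells; inhibitors lower the luminescence signal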

Compound: Cc1ccc(CS(=O)(=O)c2ncc(Cl)c(C(=O)Nc3nnc(C(C)C)s3)n2)cc1
- IC50 [1]: 3.27 µM (active)
- IC50 [2]: 10.7 µM (active)
- IC50 (Genome polyprotein): > 100 µM (active)
- AC50 [3]: 4.07 µM (active)
- EC50 (Protein RecA): 0.717 µM (active)
- AC50 [4]: 1.52 µM (active)
- AC50 [5]: 2.95 µM (active)
- IC50 [6]: > 20 µM (inactive)
- CC50 [7]: 28.3 µM (active)
- IC50 (Bcl-2-related protein A1): > 20 µM (inactive)
- CC50 (Vero): 29.1 µM (active)

Compound: COC(=O)[C@H](C)NC(=O)NC(C)CCc1ccccc1 (some centres not stated)
- IC50 (Coagulation factor XII): > 50 µM (inactive)

Compound: O=C(NC1CCC2CN(Cc3ccccc3)CC21)c1ccc(Cl)cc1Cl (configuration not stated)
- EC50 [8]: 10 µM (active)

Compound: O=C(CSc1cccc2cccnc12)N/N=C/c1cccnc1
- EC50 [9]: 6.99 µM (active)
- EC50 (Hexokinase HKDC1): 27.6 µM (inactive)
- EC50 (HEK293 [10]): > 59.6 µM (inactive)
- EC50 (HEK293 [11]): > 59.6 µM (inactive)
- EC50 [12]: > 79.4 µM (not active)
- EC50 (Hexokinase-1): > 80 µM (inactive)
- EC50 [13]: > 79.4 µM (not active)
- EC50 [14]: > 79.4 µM (not active)
- EC50 [15]: 0.579 µM (active)
